Where two headings read alike, the source gives them in different places.
Target: T1, mUSP18 (Mus musculus, UniProt Q9WTV6)
T1 construct: (46-368); His-tag (N); made in house
T1 sequence (Q9WTV6 46-368): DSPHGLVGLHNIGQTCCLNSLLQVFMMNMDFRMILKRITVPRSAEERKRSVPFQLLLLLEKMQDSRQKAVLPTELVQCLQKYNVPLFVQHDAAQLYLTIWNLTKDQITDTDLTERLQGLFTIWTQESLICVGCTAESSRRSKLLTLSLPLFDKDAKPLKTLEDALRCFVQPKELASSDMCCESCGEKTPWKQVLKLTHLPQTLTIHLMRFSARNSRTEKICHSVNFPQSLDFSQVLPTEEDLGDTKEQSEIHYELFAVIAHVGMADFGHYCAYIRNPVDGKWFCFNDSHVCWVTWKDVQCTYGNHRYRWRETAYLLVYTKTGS
Assay: High-throughput screening, ISG15ct-RhoMP, single dose 1.25 µM
Assay type: biochemical, murine
Conditions: mUSP18 %inhibition

[1] = carboxylic acid (CA) building block alone, read-out: %inh CA only
[2] = carboxylic acid (CA) with coupling reagents DIC/HOBT, read-out: %inh CA + DIC/HOBT

Row | Structure (SMILES) | inhibition at 1.25 µM [1] | inhibition at 1.25 µM [2]
1 | O=C(O)c1cn(CCc2ccccc2)nn1 [CA160] | 3.82% | 10.4%
2 | O=C(O)c1ccc(-c2ncon2)cc1 [CA461] | -2.23% | -2.33%
3 | Cc1cccc(C(=O)N2CCCCC2C(=O)O)n1 (stereo not shown) [CA152] | 2.22% | 6.16%
4 | Cc1cncc(C(=O)O)c1 [CA010] | -2.59% | -11.3%
5 | O=C(O)c1cc(-n2ccnc2)ccn1 [CA106] | 13.6% | 10.8%
6 | O=C(O)c1ccc2cc3ccccc3cc2c1 [CA068] | 6.72% | 2.22%
7 | O=C(O)c1ccc(CBr)cc1 [CA027] | 0.19% | -11.3%
8 | O=C(O)c1ccc(-n2ncc(Cl)c(Cl)c2=O)cc1 [CA186] | 20.6% | 9.85%
9 | O=C(O)c1c[nH]nc1-c1ccncc1 [CA408] | -2.77% | -3.75%
10 | O=C(O)c1cnc(COc2ccccc2)s1 [CA154] | 0.13% | 5.09%
11 | O=C(O)C1COCCN1C(=O)OCc1ccccc1 (stereo not shown) [CA265] | 7.65% | 3.99%
12 | CN1C(=O)CCC(C(=O)O)C1c1cccs1 (stereo not shown) [CA339] | 2.79% | -5.82%
13 | Cn1nc(C(=O)N2CCOCC2)cc1C(=O)O [CA218] | 7.94% | 0.97%
14 | CC(C)(C)OC(=O)N1CC[C@H](C(=O)O)C1 [CA067] | -11.3% | -14.4%
15 | O=Cc1cccc(C(=O)O)c1 [CA046] | 0.78% | -7.39%
16 | O=C(O)C1CN(S(=O)(=O)C2CC2)C1 [CA258] | 20.5% | 2.25%
17 | O=C(O)c1cc(S(=O)(=O)Nc2nccs2)ccc1F [CA403] | 0.9% | -6.97%
18 | Cc1ccc(NS(=O)(=O)c2cccc(C(=O)O)c2)cc1 [CA115] | 21.2% | 6.11%
19 | O=C(O)C1CCN(C(=O)CCOc2ccccc2)CC1 [CA197] | 4.78% | 1.19%
20 | O=C(O)c1ccc(S(=O)(=O)N2CCOCC2)cc1 [CA182] | 2.85% | 2.77%
21 | O=C(O)Cc1ccc(OCCOc2ccccc2)cc1 [CA296] | -2.15% | 1.46%

Row | Structure (SMILES) | inhibition at 1.25 µM [1] | inhibition at 1.25 µM [2]
22 | Cn1cc(S(=O)(=O)NCc2ccco2)cc1C(=O)O [CA157] | 2.07% | 6.58%
23 | O=C(O)c1cc(S(=O)(=O)NCCCN2CCCC2=O)ccc1Cl [CA230] | 4.86% | 3.56%
24 | O=C(O)CCn1nc(C(F)(F)F)cc1C1CC1 [CA415] | -5.69% | -4.3%
25 | O=C(O)c1cn(CC2CCOC2)nn1 (stereo not shown) [CA318] | -2.05% | -0.23%
26 | Cc1noc(-c2ccc(C(=O)O)cc2)n1 [CA328] | -3.57% | 6.75%
27 | O=C(O)c1ccc(Cn2cc(Cl)c(C(F)(F)F)n2)o1 [CA372] | 5.98% | 8.2%
28 | O=C(O)Cc1cnn(-c2ccccc2)c1 [CA232] | 1.32% | 8.28%
29 | Cn1cc(NS(=O)(=O)c2ccsc2C(=O)O)cn1 [CA137] | 3.97% | 20.1%
30 | O=C(O)CN1C(=O)c2ccccc2C1=O [CA049] | 0.06% | -15.8%
31 | O=C(O)C(Cc1ccccc1)N1CCCOC1=O (stereo not shown) [CA335] | 2.86% | -1.08%
32 | O=C(O)c1cccc(N2CCOCC2)n1 [CA360] | 3.09% | -0.29%
33 | Cc1onc(C(=O)O)c1CN1CCN(C)CC1 [CA413] | -6.3% | -3.44%
34 | O=C(O)c1cccc(S(=O)(=O)N2CCOCC2)c1 [CA422] | -10.9% | -0.86%
35 | O=C(O)Cc1cccc(OCc2ccccn2)c1 [CA158] | 1.44% | 6.76%
36 | O=C(O)Cc1csc(-c2cccs2)n1 [CA189] | 4.78% | -9.04%
37 | CCc1ccc(C(=O)N2CCC(C(=O)O)CC2)o1 [CA376] | 6.04% | -8.39%
38 | COc1ccc(CC(=O)O)cc1S(=O)(=O)N1CCOCC1 [CA340] | 3.33% | -0.36%
39 | O=C(O)C1CC(=O)N(c2cnccn2)C1 (stereo not shown) [CA108] | 13.8% | 11.5%
40 | CCC(C(=O)O)n1nnc(-c2ccsc2)n1 (stereo not shown) [CA109] | 10.4% | 12.2%
41 | O=C(O)c1cn(CC(=O)N2CCCC2)nn1 [CA161] | 2.32% | 14.5%

— article PMC12668310, “High‐Throughput Synthesis and Screening of a Cyanimide Library Identifies Selective Inhibitors of ISG15‐Specific Protease mUSP18” (Angewandte Chemie (International Ed. in English), 2025)
